Experimental data published in patent publication US20140148419A1, “Treatment of Excessive Menstrual Bleeding Associated with Uterine Fibroids” (PREGLEM SA, priority 2011, published 2014).

Test system: premenopausal women with heavy uterine bleeding due to uterine fibroids
Assay: Double-blind, randomized, placebo-controlled clinical study; menstrual bleeding assessed by pictorial blood loss assessment chart (PBAC), with or without later uterine artery embolization (UAE)
Assay type: in vivo, human
Conditions: for % Patient with PBAC < 75 at baseline / PBAC at baseline: before treatment; for PBAC at baseline / PBAC 3 months after treatment stop / PBAC 6 months after treatment stop / PBAC at week 13 of treatment: Mean +/- SD
Procedure: A double-blind, randomized, placebo-controlled study was conducted to evaluate the long term effect of ulipristal acetate in the treatment of uterine fibroids. Patients included premenopausal women 18-50 years with heavy uterine bleeding due to uterine fibroids who were eligible for surgery. These patients met the criteria of a Pictorial Bleeding Assessment Chart (PBAC) score >100 during days 1-8 of menstruation.
The patients were randomized in a 2:2:1 manner to receive for 12 weeks, either ulipristal acetate (UPA) 5 mg or ulipristal acetate 10 mg or placebo. In addition, all patients received concomitant iron therapy (1 tablet of 80 mg or iron once daily, Tardyfero®). The reference to 2:2:1 means that for every 5 patients, two would be randomized to receive UA 5 mg, two to receive UA 10 mg and one to receive placebo.
Forty-eight patients received a daily placebo treatment, 95 patients received a daily dose of 5 mg ulipristal acetate (Esmya®), and 98 patients received a daily dose of 10 mg ulipristal acetate (Esmya®). […] Thirty-three subjects underwent a Uterine Artery Embolization at or after week 13: 4 patients in the placebo group (group 4), 11 patients in the 5 mg ulipristal (Esmya®) group (group 5) and 18 patients in the 10 mg ulipristal (Esmya®)) group (group 6).
For study enrollment as well as follow-up assessment, menstrual bleeding was assessed using the pictorial blood loss assessment chart (PBAC) developed by Higham and colleagues (Higham J M, O'Brien P M, Shaw R W. Assessment of menstrual blood loss using a pictorial chart. Br J Obstet Gynaecol 1990; 97:734-9). The PBAC is one of the current standard methods used to objectively estimate menstrual blood loss and diagnose menorrhagia. Abnormal bleeding is defined as PBAC score >100 over 8 days of menstruation. Normal menstrual bleeding PBAC is <75. Amenorrhea is PBAC=0.
The PBAC score was assessed before treatment (Baseline), at week 13 after the end of treatment with ulipristal, at 3 months and 6 months after […].
The PBAC and the % of patients with a PBAC <75 was reported before treatment (Baseline), at week 13 after the end of treatment with ulipristal, at 3 months and 6 months after the treatment stop.

[1] = 5 mg daily, no UAE or any other surgery (Group 2)
[2] = 5 mg daily, no UAE or any other surgery (Group 2), listed as ulipristal
[3] = 5 mg daily, with UAE (Group 5), listed as ulipristal
[4] = 10 mg daily, no UAE or any other surgery (Group 3)
[5] = 10 mg daily, no UAE or any other surgery (Group 3), listed as ulipristal
[6] = 10 mg daily, with UAE (Group 6)
[7] = 10 mg daily, with UAE (Group 6), listed as ulipristal
[8] = 5 mg daily, with UAE performed after treatment stop (Group 5)
[9] = 10 mg daily, with UAE performed after treatment stop (Group 6)

With `CC(=O)O[C@]1(C(C)=O)CC[C@H]2[C@@H]3CCC4=CC(=O)CCC4=C3[C@@H](c3ccc(N(C)C)cc3)C[C@@]21C` [Esmya, 17α-acetoxy-11β-[4-N,N-dimethylaminophenyl)-19-norpregna-4,9-diene-3,20-dione] the “% Patient with PBAC < 75, 3 months after end of treatment” value (shortened to “% Patient with PBAC < 75, 3 months”) [1] was 15%, the “% Patient with PBAC < 75, 6 months after end of treatment” value (from here on “% Patient with PBAC < 75, 6 months”) [1] was 17% and the “% Patient with PBAC < 75 at week 13 of treatment” value [1] was 98%. The “% Patient with PBAC < 75 at baseline” value [1] was 0%, the “% Patient with PBAC < 75, 3 months” value [2] was 15% and the “% Patient with PBAC < 75 at week 13 of treatment” value [2] was 98%. The “% Patient with PBAC < 75, 3 months” value (5 mg daily, with UAE (Group 5)) was 36%, the “% Patient with PBAC < 75, 6 months” value (5 mg daily, with UAE (Group 5)) was 27% and the “% Patient with PBAC < 75 at week 13 of treatment” value (5 mg daily, with UAE (Group 5)) was 100%. For the same compound, the “% Patient with PBAC < 75 at baseline” value (5 mg daily, with UAE (Group 5)) was 0%, the “% Patient with PBAC < 75, 3 months” value [3] was 36% and the “% Patient with PBAC < 75, 6 months” value [3] was 27%. For the same compound, the “% Patient with PBAC < 75 at week 13 of treatment” value [3] was 100%, the “% Patient with PBAC < 75, 3 months” value [4] was 17% and the “% Patient with PBAC < 75, 6 months” value [4] was 26%. The “% Patient with PBAC < 75 at week 13 of treatment” value [4] was 97%, the “% Patient with PBAC < 75 at baseline” value [4] was 0% and the “% Patient with PBAC < 75, 3 months” value [5] was 17%. The “% Patient with PBAC < 75 at week 13 of treatment” value [5] was 97%, the “% Patient with PBAC < 75, 3 months” value [6] was 60% and the “% Patient with PBAC < 75, 6 months” value [6] was 53%. For the same compound, the “% Patient with PBAC < 75 at week 13 of treatment” value [6] was 100%, the “% Patient with PBAC < 75 at baseline” value [6] was 0% and the “% Patient with PBAC < 75, 3 months” value [7] was 60%. The “% Patient with PBAC < 75, 6 months” value [7] was 53%, the “% Patient with PBAC < 75 at week 13 of treatment” value [7] was 100% and the PBAC at baseline (5 mg daily oral 12 weeks, no UAE or any other surgery (Group 2)) was 419 +/− 281. For the same compound, the PBAC at baseline (5 mg daily oral 12 weeks, with UAE performed after treatment stop (Group 5)) was 490 +/− 231, the “PBAC 3 months after treatment stop” value [1] was 337 +/− 300 and the “PBAC 6 months after treatment stop” value [1] was 338 +/− 233. For the same compound, the “PBAC at week 13 of treatment” value [1] was 13 +/− 69, the “PBAC 3 months after treatment stop” value [8] was 202 +/− 102 and the “PBAC 6 months after treatment stop” value [8] was 207 +/− 117. The “PBAC at week 13 of treatment” value [8] was 25 +/− 60, the PBAC at baseline (10 mg daily oral 12 weeks, no UAE or any other surgery (Group 3)) was 340 +/− 187 and the PBAC at baseline (10 mg daily oral 12 weeks, with UAE performed after treatment stop (Group 6)) was 375 +/− 135. For the same compound, the “PBAC 3 months after treatment stop” value [4] was 417 +/− 669, the “PBAC 6 months after treatment stop” value [4] was 203 +/− 161 and the “PBAC at week 13 of treatment” value [4] was 2 +/− 13. The “PBAC 3 months after treatment stop” value [9] was 120 +/− 55, the “PBAC 6 months after treatment stop” value [9] was 136 +/− 70 and the “PBAC at week 13 of treatment” value [9] was 0 +/− 0. The “effect for controlling menstrual bleeding resulting from oral administration prior to UAE” value (oral ulipristal prior to UAE versus ulipristal alone and UAE alone) was “synergistic effect”.
